Test results published in ChEMBL document CHEMBL1201862, “PubChem BioAssay data set” (2004).
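Values below derive from 48-hour exposures of cells grown in 96-well plates, with endpoints linearly interpolated between the two concentrations bracketing the appropriate inhibition level. The concentration for 50% growth inhibition is given as GI50.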 The source made the active and inactive calls. Cut-off read from the data, not from the text of the source: active = GI50 up to about 1.1 µM and inactive = higher.

How the values were obtained:
Test in all cases: NCI anticancer screen, dose series, 48 h
[1] = system: KM12
[2] = system: 786-0
[3] = system: M14
[4] = system: SNB-75
[5] = system: HOP-92
[6] = system: A549
[7] = system: Malme-3M
[8] = system: CAKI-1
[9] = system: ACHN
[10] = system: K562
[11] = system: OVCAR-8
[12] = system: SF-295
[13] = system: U-251
[14] = system: UACC-62
[15] = system: HT-29
[16] = system: RXF 393
[17] = system: IGROV-1
[18] = system: SK-MEL-5

Measured: GI50

CC(C)(C)C1=Cc2cc3cc(C(C)(C)C)[nH]c(=O)c3cc2S(=O)(=O)N1
inactive: [1] 30.6 µM | [2] 26.2 µM | [3] 14.6 µM | [4] 37.8 µM | [5] 16.7 µM | [6] 23.2 µM | [7] 22.4 µM | [8] 12.2 µM | [9] 30.3 µM | [10] 45.4 µM | [11] 39.8 µM | [12] 28.5 µM | [13] 18 µM | [14] 18.4 µM | [15] 22.9 µM

CC1CC(c2ccc(Cl)cc2)=Nc2ccccc2S1 (centres undefined)
inactive: [1] > 100 µM | [2] > 100 µM | [3] > 100 µM | [4] > 100 µM | [16] > 100 µM | [6] > 100 µM | [7] > 100 µM | [17] > 100 µM | [9] > 100 µM | [10] > 100 µM | [11] > 100 µM | [12] > 100 µM | [13] > 100 µM | [14] > 100 µM | [15] > 100 µM

O=C(CCC(=O)Nc1ccc(Cl)cc1)CC(=O)c1ccc(F)cc1
inactive: [1] > 100 µM | [2] > 100 µM | [3] > 100 µM | [4] > 100 µM | [5] > 100 µM | [6] > 100 µM | [7] > 100 µM | [8] > 100 µM | [17] > 100 µM | [9] > 100 µM | [10] > 100 µM | [11] > 100 µM | [12] > 100 µM | [14] > 100 µM | [15] > 100 µM

NC(=S)N/N=C(\C(=O)Nc1ccc(Cl)c(Cl)c1)C1=NN(c2ccccc2)C(c2cccc([N+](=O)[O-])c2)CC1=O (centres undefined)
inactive: [1] 85.9 µM | [2] 17.6 µM | [18] > 100 µM | [3] 55.1 µM | [4] 26.5 µM | [6] 75.2 µM | [7] > 100 µM | [8] 79.4 µM | [17] 27 µM | [9] 39.2 µM | [10] 17.9 µM | [11] 26.7 µM | [12] 24.9 µM | [13] 4.31 µM | [14] 40.8 µM | [15] 16.5 µM

O=C(/C=C/c1ccc(-c2ccccc2)cc1)c1ccccc1
inactive: [1] 17.9 µM | [2] 22.8 µM | [18] 19.7 µM | [3] 31.1 µM | [4] 31 µM | [5] 16.6 µM | [6] 19.5 µM | [7] 41.9 µM | [8] 38.7 µM | [17] 26.7 µM | [9] 31.6 µM | [10] 27.7 µM | [11] 17.3 µM | [12] 30.2 µM | [13] 22.9 µM | [14] 20.8 µM | [15] 21.9 µM

COc1ccc(/C=N\N2C(=O)Cc3ccccc32)cc1
inactive: [1] > 100 µM | [2] > 100 µM | [18] > 100 µM | [3] 86.1 µM | [4] 17.9 µM | [5] 22.3 µM | [6] > 100 µM | [7] > 100 µM | [8] > 100 µM | [17] > 100 µM | [9] > 100 µM | [10] 95.5 µM | [11] > 100 µM | [12] 51.6 µM | [13] 48.4 µM | [14] > 100 µM | [15] > 100 µM

Cc1cccc2c(=O)cc(-c3ccccc3)[nH]c12
inactive: [2] 4.78 µM | [18] 2.36 µM | [3] 3.45 µM | [4] 1.73 µM | [16] 3.62 µM | [6] 6.11 µM | [7] 4.09 µM | [17] 7.26 µM | [9] 12.2 µM | [10] 2 µM | [12] 4.09 µM | [13] 21.9 µM | [14] 4.21 µM | [15] 3.1 µM

COc1ccc2c3c([nH]c2c1[N+](=O)[O-])C(C)=NCC3
inactive: [1] 89.3 µM | [2] > 100 µM | [3] > 100 µM | [4] > 100 µM | [16] > 100 µM | [6] 77.4 µM | [8] 47.1 µM | [17] 20.9 µM | [9] 52.6 µM | [10] 62.7 µM | [11] 62.7 µM | [12] 72.8 µM | [13] > 100 µM | [14] 19.5 µM | [15] 56.8 µM

N#Cc1c(=O)c2ccccc2n2ccccc12
inactive: [1] > 100 µM | [2] > 100 µM | [18] > 100 µM | [4] > 100 µM | [5] > 100 µM | [6] 29.8 µM | [7] > 100 µM | [8] > 100 µM | [17] > 100 µM | [9] > 100 µM | [10] > 100 µM | [11] > 100 µM | [13] > 100 µM | [14] > 100 µM | [15] > 100 µM
